In patent US8980226B2, “Aerosolized fosfomycin/aminoglycoside combination for the treatment of bacterial respiratory infections” (Gilead Sciences, Inc., priority 2004, dated 2015):
Like-named read-outs stand apart in the source and are kept apart here.

How the values were obtained:
Format in all cases: cell-based
[1] = tested on: P. aeruginosa ATCC 27853; assay: Time-kill kinetics in the presence of 2% porcine gastric mucin; conditions: for killing in time-kill curves / Time to reach bactericidal killing, antibiotic alone: P. aeruginosa ATCC 27853; for killing in time-kill curves: FIGS. 1-7, fosfomycin and tobramycin alone as comparators of the combination; for Time to reach bactericidal killing, antibiotic alone: single antibiotic, 32 μg/mL
Procedure: Two to three bacterial colonies were inoculated into 10 mL CAMHB and incubated at 35° C. in a shaking water bath (250 rpm) for 18-24 hours. […] The resulting culture was adjusted to a 0.5 McFarland standard (NCCLS, 2003). […] Ten milliliter aliquots were then pipeted into 50 mL conical tubes. […] The killing activity of fosfomycin plus amikacin, arbekacin, dibikacin, gentamicin, kanamycin, […], neomycin, streptomycin, or tobramycin were also compared to the killing activity of their individual components alone. […] A no drug control was run in each experiment. Cultures were incubated with antibiotic at 35° C. in a shaking (250 rpm) water bath for 24 hours. […] Culture plates were incubated at 35° C. for 18-24 hours and the number of colonies enumerated manually. The limit of detection for the colony counting method was 1 Log10). Time-kill curves were constructed by plotting the Log10 number of CFU/mL culture versus time.

[2] = tested on: P. aeruginosa COR-014; assay: Multistep resistance analysis (continuous serial passage); conditions: for MIC: Pseudomonas aeruginosa
Procedure: A single colony of P. aeruginosa COR-014 was inoculated into 5 mL of MHCAB and briefly vortexed. Two-fold serial dilutions of fosfomycin alone covering the range of 1 μg/mL-512 μg/mL, tobramycin alone covering 0.0625 μg/mL-512 μg/mL, and a 9:1 fosfomycin:tobramycin combination covering 0.0625 μg/mL-512 μg/mL were made in CAMHB. Ten microliters of bacterial suspension was pipetted into 3 mL of each antibiotic dilution and incubated statically at 35° C. for 18-24 hours. Tubes with the highest concentration of antibiotic having visible bacterial growth were selected from each antibiotic dilution series and 100 μl of the culture was pipeted into a fresh antibiotic dilution series. Tubes were incubated statically at 35° C. for 18-24 hours. This process was repeated for a total of 28 times. MICs of fosfomycin alone, tobramycin alone, and fosfomycin plus tobramycin were determined for the parent strain and resistant isolates collected after each passage as described in Example 5, Method C.

[3] = tested on: E. coli ATCC 25922; assay: MBC/MIC, broth microdilution
Procedure: (§1) “Minimal bactericidal concentration (MBC)” means the lowest concentration of antibiotic that results in ≧3 Log10 of bacterial killing.
(§2) The MICs of amikacin, arbekacin, dibekacin, gentamicin, kanamycin, netilimicin, neomycin, streptomycin, and tobramycin alone were determined for P. aeruginosa ATCC 27853 by the broth-microdilution method according to NCCLS standards (NCCLS, 2003). E. coli ATCC 25922 and S. aureus ATCC 29213 were used as quality control stains. Bacterial strains were streaked onto blood agar plates, and incubated at 35° C. for 18 hours. Two to three bacterial colonies from the overnight cultures were inoculated into 3 mL of sterile normal saline, vortexed briefly, and adjusted to a 0.5 McFarland standard (NCCLS, 2003). The bacterial suspension was diluted 1:100 in cation-adjusted Mueller-Hinton broth (hereafter referred to as CAMHB). Fifty microliters of bacterial inoculum (approximately 2×10^5 CFU/mL) was pipeted into individual wells of 96-well plates containing 50 μl of CAMHB (Remel, Lenexa, Kanas) supplemented with 2-fold dilutions of antibiotics ranging in concentration from 0.125 μg/mL to 128 μg/mL. The MIC was defined as the lowest concentration of antibiotic (s) that prevented visible growth after incubation at 35° C. for 18-24 hours.
(§3) The MBCs of fosfomycin, amikacin, arbekacin, dibikacin, gentamicin, kanamycin B, netilimicin, neomycin, streptomycin, or tobramycin alone for P. aeruginosa ATCC 27853, E. coli ATCC 25922, and S. aureus ATCC 29213 were determined by the broth microdilution method according to NCCLS standards (NCCLS, 1999). Bacterial strains were streaked onto blood agar plates and incubated at 35° C. for 18-24 hours. Two to three bacterial colonies from the overnight cultures were inoculated into 3 mL of sterile normal saline, vortexed briefly, and adjusted to a 0.5 McFarland standard (NCCLS, 2003). Fifty microliters of bacterial inoculum (approximately 2×10^5 CFU/mL) was pipeted into individual wells of 96-well plates containing 50 μl of CAMHB (Remel, Lenexa, Kanas) supplemented with 2-fold dilutions of antibiotics ranging in concentration from 0.125 μg/mL to 128 μg/mL. Plates were incubated at 35° C. for 18-24 hours and MIC determined as described in Example 5, Method C. The contents of wells showing no growth (MIC and above) were mixed with a pipetor and duplicate 10 μl samples spread onto blood agar plates. Culture plates were incubated at 35° C. for 18-24 hours and the number of bacterial colonies on each plate enumerated manually. Rejection values were determined by NCCLS methods which considers the final inoculum size, single or double sampling, pipetting error, and the Poisson distribution of sample responses (NCCLS, 1999). […] The MBC was defined as the ≧3 Log10 decrease in CFU/mL of the original inoculum as described by NCCLS standards (NCCLS, 1999). The MBC/MIC ratios were calculated by dividing the MBC by the MIC.

[4] = tested on: S. aureus ATCC 29213; assay: MBC/MIC, broth microdilution
Procedure: as §1, §2, §3

[5] = tested on: P. aeruginosa ATCC 27853; assay: MBC/MIC, broth microdilution
Procedure: as §1, §2, §3

[6] = 28 days of continuous exposure, clinical P. aeruginosa strain
[7] = COR014, 168 h, read-out: MIC 7d
[8] = COR014, 336 h, read-out: MIC 14d
[9] = COR014, 504 h, read-out: MIC 21d
[10] = COR014, 672 h, read-out: MIC 28d
[11] = COR014, read-out: MIC of the parent strain

Row | Structure (SMILES) | killing in time-kill curves [1] | Time to reach bactericidal killing, antibiotic alone [1] | development of resistance on continuous exposure [2, 6] | MIC ([2]; COR014, 0 h, read-out: MIC 0d) [µg/mL] | MIC [2, 7] [µg/mL] | MIC [2, 8] [µg/mL] | MIC [2, 9] [µg/mL] | MIC [2, 10] [µg/mL] | MIC [2, 11] [µg/mL] | MBC/MIC E. coli [3] | MBC/MIC S. aureus [4] | MBC/MIC P. aeruginosa [5] | MBC/MIC P. aeruginosa ([5]; listed as fosfomycin) | rank of killing activity, combinations and tobramycin alone compared ([1]; 16 ug/mL, FIGS. 8 and 9) | increase in MIC on continuous exposure [2, 6] [fold] | MBC/MIC Aminoglycoside ([5]; aminoglycoside alone)
1 | C[C@@H]1O[C@@H]1P(=O)(O)O [Fosfomycin] | bacteriostatic killing | not bactericidal | rapid and dramatic development of resistance | 16 | > 512 | > 512 | > 512 | > 512 | 8 | 8 | 1 | ≧8 | ≥ 8 |  |  | 
2 | NC[C@H]1O[C@H](O[C@H]2[C@H](O)[C@@H](O[C@H]3O[C@H](CO)[C@@H](O)[C@H](N)[C@H]3O)[C@H](N)C[C@@H]2N)[C@H](N)C[C@@H]1O [Tobramycin] | bacteriostatic killing | 1 h |  | 0.5 | 0.5 | 0.5 | 32 | 64 | 0.5 | 1 | 8 | 1 |  | most active antibiotic | 128 | 1
